Source: patent publication US20030135033A1, “Compounds and methods for the identification and/ or validation of a target” (priority 2002, published 2003)

Columns and labels:
PTEN mRNA [1] = assay: Immunoblot of PTEN and phosphorylated Akt after GeneBloc transfection of HeLa cells; assay type: cell-based, human; settings: 30 nM, 48 h
Procedure: More particularly, HeLa cells (380.000 cells/plate) and PC-3 cells (450.000 cells/plate) were transfected in parallel on 10 cm plates. Each cell line was treated for 48 h in duplicate samples with 30 nM of PTEN GeneBloc 53 or GBC. The cell extracts were analyzed by immunoblotting for the relative amounts of p110, PTEN and phosphorylated Akt (P*-Akt) as indicated on the right. The band which migrates just above the PTEN signal was caused by unspecific reaction of the secondary antibody.
More particularly, a schematic pathway with PTEN inhibiting PI-3K activity is shown which would normally phosphorylate Akt thus leading to proliferation, survival and migration of HeLa cells as a model system for PTEN +/+ cells. FIG. 9 B presents the Western immunoblot analysis of an experiment studying the influence of PTEN specific antisense oligonucleotide or a control antisense nucleotide designated as mismatch GeneBloc™. PTEN is only present in the control sample, but is absent when PTEN-specific antisense oligonucleotides are used. The successful knockdown of PTEN causes phosphorylation of Akt, indicative of induction of the signalling pathway. […] Growth on matrigel is used as a surrogate in vitro assay for metastatic or invasive cell growth. The cells treated with PTEN third generation antisense oligonucleotide (“PTEN GeneBloc™”) shown in FIG. 9C have a significant growth advantage over the control-treated cells.
Transfections were carried out in 96 well or 10-cm plates (at 30% to 50% confluency) by using various cationic lipids such as Oligofectamine, Lipofectamine (Life Technologies), NC388 (Ribozyme Pharmaceuticals, Inc., Boulder, CO), or FuGene 6 (Roche) according to the manufacturer's instructions. […]
Cells were washed twice with cold phosphate-buffered saline and lysed at 4° C. in lysis buffer containing 20 mM Tris (pH 7.5), 137 mM NaCl, 15% (vol/vol) glycerol, 1% (vol/vol) Nonidet P-40 (NP-40), 2 mM phenylmethylsulfonyl fluoride, […], 20 mM leupeptin, 2 mM benzamidine, 1 mM sodium vanadate, 25 mM […]-glycerol phosphate, 50 mM NaF and 10 mM NaPPi. Lysates were cleared by centrifugation at 14,000× g for 5 minutes and aliquots of the lysates were analyzed for protein expression by Western-blotting: Samples were separated by SDS-PAGE and transferred to nitrocellulose-filters (Schleicher & Schuell). […] Bound antibody was detected using anti-mouse- or anti-rabbit-conjugated horse radish peroxidase (Transduction Laboratories, BD) in TBST, washed, and developed using the SuperSignal West Dura (Pierce) or ECL (Amersham) chemoluminescence substrates.
The effect of GeneBloc induced transient knock down of PTEN expression was to be compared to the loss of PTEN function in human tumor cells. […] After 2 days the cell extracts were analyzed by Western-blotting. […]

PTEN mRNA [2] = assay: Relative PTEN RNA level by Taqman analysis; assay type: cell-based, rat; settings: 3Y1 cells, parallel samples of BrdU experiment
Procedure: The RNA of cells transfected in 96-wells was isolated and purified using the Invisorb RNA HTS 96 kit (InVitek GmbH, Berlin). Inhibition of PTEN mRNA expression was detected by real time RT-PCR (Taqman) analysis using PTEN 5′ primer […] (SEQ ID No. 47), PTEN 3′ primer […] (SEQ ID No. 48) and the Taqman probe Fam-[…]-Tamra (SEQ ID No. 34). The reaction was carried out in 50 μl and assayed on the ABI PRISM 7700 Sequence detector (Applied Biosystems) according to the manufacturer's instructions under the following conditions: 48° C. for 30 min, 95° C. for 10 min, followed by 40 cycles of 15 sec at 95° C. and 1 min at 60° C.
3Y1 cells were used, because these untransformed rat fibroblasts are very sensitive to transfection conditons and are prone to arrest or even undergo apoptosis. Subconfluent 3Y1 cells in 96 wells were treated with PTEN GeneBloc 48, GeneBloc 53 or GBC as a control. On day 2 the cells were synchronized in low serum. During days 3 and 4 the cells were released into the cell cycle by serum stimulation at various time points. BrdU was added for the last 2 h of incubation. Untreated cells and cells that were treated with Aphidicolin for 24 h were used as controls. RNA knock down was analyzed in parallel samples. The rate of synthesis was determined via the amount of incorporated BrdU.

PTEN mRNA [3] = assay: PTEN knock down by RNAi versus antisense oligonucleotide (Western blot, dose response); assay type: cell-based, human
Procedure: The cells were infected using any of these two constructs according to the methods described herein above.
The result of this experiment is depicted in FIG. 18. […] As a positive control an antisense oligonucleotide specific for PTEN referred to as GeneBloc 53 (disclosed above) was also applied to the respective expression system at different concentrations (60 nM, 15 nM, 3.75 nM and 0.93 nM).
To further illustrate the impact of RNAi which is specific for PTEN, on the ratio of PTEN to p110 a dose response was generated which is shown in FIG. 19. From FIG. 19 it may be taken that even at the lowest concentration, i. e. 0.03 nM, the PTEN specific RNAi still reduces the ratio of PTEN to p 110 to about one third of the respective control. […] This is in clear contrast to RNAi which is not specific for PTEN.

ucuccuuTTGTTTCTGcuaacga (UCUCCUUTTGTTTCTGCUAACGA; chemistry not fully specified) [PTEN 53, third generation antisense oligonucleotide (GeneBloc) against PTEN]
PTEN (immunoblot) (PTEN mRNA [1]): degradation of PTEN mRNA | phosphorylated Akt (P*-Akt) (immunoblot) (PTEN mRNA [1]): generation of phosphorylated Akt | PTEN (immunoblot) (PTEN mRNA [1]; listed as PTEN GeneBloc 53): strong reduction in PTEN protein | phosphorylated Akt (P*-Akt) (immunoblot) (PTEN mRNA [1]; listed as PTEN GeneBloc 53): substantial increase in Akt phosphorylation | PTEN mRNA level (PTEN/actin RNA) (PTEN mRNA [2]): remained downregulated | concentration required compared to RNAi (PTEN mRNA [3]; PTEN knockdown, Western blot): requires higher concentrations compared to RNAi | PTEN expression (Western blot) (PTEN mRNA [3]; antisense oligonucleotide at 60 nM, 15 nM, 3.75 nM and 0.93 nM): allows for a specific knockdown of PTEN
